“Also recorded” adds a separate entry of the source.
Assays:
PTP1B = molecular target: T1, PTP1B (Homo sapiens, UniProt P18031); test: In vitro PTPase assay, GST/PTP1B; type: biochemical; conditions: 0.1 to 1 μg/ml
T1 construct: purchased Upstate Biotechnology Inc. (Lake Placid, N.Y.)
Description: In vitro PTPase activities were measured using the commercial protein tyrosine phosphatase assay kit (Upstate Biotechnology, Inc. (“UBI”)) following established procedure known to one of skill in the art. This assay measures the in vitro dephosphorylation of a synthetic phosphotyrosine peptide of the sequence Arg-Arg-Leu-Ile-Glu-Asp-Ala-Gle-T- -yr-Ala-Ala-Arg-Gly, wherein the tyrosine is phosphorylated (SEQ ID NO: 3). Briefly, 0.01 µg of GST/PTPase fusion proteins was incubated in 50 µl of Tris buffer (10 mM Tris, pH 7.4) containing different concentrations of inhibitors or chemicals (0-1,000 µg/ml) at 22° C. for 10 minutes, followed by addition of 0.2 mM of the phosphotyrosine peptide and incubation at 22° C. for 18 hours. 100 µl of Malachite Green solution was added and incubated for 5 minutes, and the absorbance at 660 nm was measured after 5 minutes.
In vitro PTPase assays were used to determine the effects of levamisole (Sigma), pentamidine (American Pharmaceutical Partners, Inc.), and ketoconazole (Sigma) on recombinant PTPases, following established procedures (Pathak et al., J. Imumol. 167, 3391 (2001); Pathak et al., Leukemia 16, 2285 (2002), Yi et al., J. Immunol. 169, 5978 (2002)) using a synthetic phosphotyrosine peptide or DiFMUP as the substrate as detailed above in section I.A.2.

[1] = test system: tumor-infiltrating and spleen macrophages (F4/80+), T and NK cells; test: Immunohistochemistry of Renca tumors and spleen, Balb/c mice; conditions: mouse, in vivo
Description: Major internal organs and Renca tumors harvested from mice were fixed in 10% formalin or snap frozen in liquid nitrogen. H & E-stained tissue sections of the fixed samples were prepared and evaluated by microscopy as described previously (Yi, T., M. K. Pathak, D. J. Lindner, M. E. Ketterer, C. Farver, and E. C. Borden. 2002. Anticancer activity of sodium stibogluconate in synergy with IFNs. J Immunol 169:5978). Preparation of frozen tissue sections and immunohistochemistry were performed following established procedures (Joliat, M. J., P. A. Lang, B. L. Lyons, L. Burzenski, M. A. Lynes, T. Yi, J. P. Sundberg, and L. D.
The sections were counterstained with Mayer's hematoxylin prior to microscopic examination. Tissue sections of 2 mice/group were evaluated. The number of immune cells was semi-quantified based on the following scheme: +, 0-1 positive cells/40×field; +, 2-5 positive cells/40×field; ++, 6-10 positive cells/40×field, etc.

MDA231 cells = test: MDA231 breast cancer cell growth, MTT assay; type: cell-based, human; conditions: single agent, 50 μg/ml and 100 μg/ml
Description: For cell proliferation assays, cells were grown in 10% FCS culture medium containing various amounts of IFNs and/or sodium stibogluconate in 96 well plates and cultured at 37° C. for 3 or 6 days as indicated. The numbers of viable cells in proliferation assays were determined by MTT assays as described in Phatak et al., J. Immunol. 167, 3391 (2001).

DU145R cells = test: DU145R cell growth, MTT assay; type: cell-based, human; conditions: day 6 culture
Description: DU145 cells were cultured in the presence of sodium stibogluconate (100 µg/ml) in 48 well plates for 3 weeks. Cells from a well containing a single colony were transferred to flasks, cultured in sodium stibogluconate-free medium for 3 weeks and used as DU145R cells for further characterization. Growth of DU145R cells in the absence or presence of sodium stibogluconate in day 6 culture was determined by MTT assays. cDNAs of the coding region of PRLs were derived by RT-PCR from DU145 and DU145R cells and sequenced using primers described below.

intracellular Flag-PRL-3 = molecular target: T2, intracellular Flag-PRL-3 (Homo sapiens, UniProt O75365); test: Immunocomplex PTPase assay, Flag-PRL-3 NIH3T3 transfectants; type: cell-based; conditions: cells treated 5 min
T2 construct: expressed in transfected cells; host or cells: NIH3T3 (pBabepuro, puromycin-selected)
T2 sequence (O75365 whole entry): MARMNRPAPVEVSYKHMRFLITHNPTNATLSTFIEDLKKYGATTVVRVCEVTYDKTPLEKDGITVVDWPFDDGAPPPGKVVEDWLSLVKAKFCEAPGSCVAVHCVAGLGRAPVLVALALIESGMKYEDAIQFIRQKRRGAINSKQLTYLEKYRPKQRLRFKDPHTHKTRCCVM
Description: Immunocomplex PTPase assays were performed to assess the effects of sodium stibogluconate on intracellular PTPases. Cells were untreated or treated with sodium stibogluconate for 5 minutes, washed with fresh medium and then lysed in cold lysis buffer (50 mM Tris, pH 7.4; 150 mM NaCl; 1% NP40; 2 mM PMSF; 20 μg/ml of Aprotinin). The lysates were incubated with an anti-Flag antibody in immunoprecipitation assays. The immunocomplexes were collected with protein G sepharose beads (Pharmacia) and washed in cold lysis buffer for 4 times. […] C. for 18 hrs. 100 µL of malachite green solution (UBI) was added to each reaction prior to measurement of OD660 to quantify the amounts of free phosphate cleaved by the PTPases from the peptide substrate (Pathak et al., J. Imumol. 167, 3391 (2001)). The remaining 10% contents of individual samples were analyzed by SDS-PAGE/Western blotting to quantify the relative amounts of the phosphatase proteins. […]
The effects of sodium stibogluconate on intracellular PTPases were assessed using NIH3T3 or WM9 transfectants. […]

T1 sequence (P18031 whole entry, species assumed): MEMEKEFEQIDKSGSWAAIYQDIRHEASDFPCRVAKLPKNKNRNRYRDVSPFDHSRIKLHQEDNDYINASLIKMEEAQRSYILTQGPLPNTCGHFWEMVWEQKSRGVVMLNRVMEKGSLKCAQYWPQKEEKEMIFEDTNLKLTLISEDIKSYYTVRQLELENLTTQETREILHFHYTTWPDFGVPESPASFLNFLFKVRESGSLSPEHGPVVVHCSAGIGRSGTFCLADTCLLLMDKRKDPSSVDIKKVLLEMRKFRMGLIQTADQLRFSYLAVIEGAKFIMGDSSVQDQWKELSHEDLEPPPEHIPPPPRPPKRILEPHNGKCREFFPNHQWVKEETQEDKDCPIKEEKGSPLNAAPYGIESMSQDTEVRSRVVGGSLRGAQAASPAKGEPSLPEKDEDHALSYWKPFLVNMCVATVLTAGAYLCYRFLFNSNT

O.O.O.O.O.O.O.O.O.O=C([O-])[C@@H]1[O][Sb]2([O-])([O][Sb]34([OH])[O][C@H]([C@H](O)CO)[C@H]([O]3)[C@H](C(=O)[O-])[O]4)[O][C@H]([C@H](O)CO)[C@@H]1[O]2.[Na+].[Na+].[Na+] [sodium stibogluconate]
inhibition of PTP1B activity (PTP1B): only modestly effective
numbers of tumor-infiltrating T cells or NK cells [1]: little effect
MDA231 cells in day 6 culture (MDA231 cells): killed all cells; also recorded: complete or near complete killing
growth of DU145R clone in comparison to parental DU145 (DU145R cells): growth resistance
PTPase activity of immunocomplexes from treated Flag-PRL-3 transfectants (intracellular Flag-PRL-3): lack of PTPase activity

From patent US20080089860A1, “Therapeutic compositions and methods useful in treating cancer” (priority 2006, published 2008)
